Reference: ChEMBL document CHEMBL3431459, “Roche carnitine palmitoyltransferase modulator screening data (supplementary data associated with the publication CHEMBL2216752)”
In brackets after ≈: the same amount, converted by molar mass.

Tests used:
[1] = target: T1, Carnitine O-palmitoyltransferase 2, mitochondrial (Rattus norvegicus, UniProt P18886); experiment: (§1) SUPPLEMENTARY: Inhibition of Carnitine palmitoyltransferase 2
T1 sequence (P18886 whole entry): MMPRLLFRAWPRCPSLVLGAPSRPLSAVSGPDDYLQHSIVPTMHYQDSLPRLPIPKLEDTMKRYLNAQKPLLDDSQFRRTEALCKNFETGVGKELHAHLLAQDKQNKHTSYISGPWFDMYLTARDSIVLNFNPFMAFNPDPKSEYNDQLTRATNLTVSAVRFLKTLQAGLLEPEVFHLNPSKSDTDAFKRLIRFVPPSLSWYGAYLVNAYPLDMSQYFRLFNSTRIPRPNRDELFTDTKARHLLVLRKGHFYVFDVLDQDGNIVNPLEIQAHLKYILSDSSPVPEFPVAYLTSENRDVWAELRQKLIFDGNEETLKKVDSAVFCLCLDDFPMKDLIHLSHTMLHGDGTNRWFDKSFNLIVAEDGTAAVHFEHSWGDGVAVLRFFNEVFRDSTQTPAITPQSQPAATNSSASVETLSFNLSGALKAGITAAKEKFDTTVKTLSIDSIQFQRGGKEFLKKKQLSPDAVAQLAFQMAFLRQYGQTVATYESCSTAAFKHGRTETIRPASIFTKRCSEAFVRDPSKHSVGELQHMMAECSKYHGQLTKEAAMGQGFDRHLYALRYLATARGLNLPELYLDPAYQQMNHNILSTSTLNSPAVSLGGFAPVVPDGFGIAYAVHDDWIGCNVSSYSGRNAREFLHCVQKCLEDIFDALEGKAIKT

[2] = target: T2, Carnitine O-palmitoyltransferase 2, mitochondrial (Homo sapiens, UniProt P23786); experiment: as §1
T2 sequence (P23786 whole entry): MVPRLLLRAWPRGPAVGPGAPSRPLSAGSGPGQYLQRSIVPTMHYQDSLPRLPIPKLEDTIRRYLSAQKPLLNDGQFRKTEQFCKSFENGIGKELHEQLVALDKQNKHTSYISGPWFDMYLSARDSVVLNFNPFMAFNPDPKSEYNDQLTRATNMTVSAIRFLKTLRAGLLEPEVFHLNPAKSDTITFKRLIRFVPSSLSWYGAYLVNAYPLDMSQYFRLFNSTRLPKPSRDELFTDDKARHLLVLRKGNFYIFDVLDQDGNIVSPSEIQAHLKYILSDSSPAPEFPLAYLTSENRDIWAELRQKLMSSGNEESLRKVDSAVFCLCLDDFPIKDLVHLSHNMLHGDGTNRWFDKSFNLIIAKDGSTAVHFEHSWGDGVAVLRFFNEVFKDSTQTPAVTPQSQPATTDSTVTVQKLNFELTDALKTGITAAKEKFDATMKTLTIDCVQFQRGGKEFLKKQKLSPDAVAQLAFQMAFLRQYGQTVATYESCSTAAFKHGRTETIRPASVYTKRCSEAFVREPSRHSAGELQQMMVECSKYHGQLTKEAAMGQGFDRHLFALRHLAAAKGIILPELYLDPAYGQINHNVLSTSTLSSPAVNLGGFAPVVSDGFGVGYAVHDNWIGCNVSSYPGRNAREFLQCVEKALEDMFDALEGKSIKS

[3] = SUPPLEMENTARY: PAMPA permeability assay; type: physicochemical; details: read-out: Permeability
[4] = SUPPLEMENTARY: Lyophilisation Solubility Assay (LYSA); type: physicochemical; details: read-out: Kinetic_solubility
[5] = target: T3, Carnitine O-palmitoyltransferase 1, liver isoform (Rattus norvegicus, UniProt P32198); experiment: (§2) SUPPLEMENTARY: Inhibition of Carnitine palmitoyltransferase 1, liver isoform
T3 sequence (P32198 whole entry): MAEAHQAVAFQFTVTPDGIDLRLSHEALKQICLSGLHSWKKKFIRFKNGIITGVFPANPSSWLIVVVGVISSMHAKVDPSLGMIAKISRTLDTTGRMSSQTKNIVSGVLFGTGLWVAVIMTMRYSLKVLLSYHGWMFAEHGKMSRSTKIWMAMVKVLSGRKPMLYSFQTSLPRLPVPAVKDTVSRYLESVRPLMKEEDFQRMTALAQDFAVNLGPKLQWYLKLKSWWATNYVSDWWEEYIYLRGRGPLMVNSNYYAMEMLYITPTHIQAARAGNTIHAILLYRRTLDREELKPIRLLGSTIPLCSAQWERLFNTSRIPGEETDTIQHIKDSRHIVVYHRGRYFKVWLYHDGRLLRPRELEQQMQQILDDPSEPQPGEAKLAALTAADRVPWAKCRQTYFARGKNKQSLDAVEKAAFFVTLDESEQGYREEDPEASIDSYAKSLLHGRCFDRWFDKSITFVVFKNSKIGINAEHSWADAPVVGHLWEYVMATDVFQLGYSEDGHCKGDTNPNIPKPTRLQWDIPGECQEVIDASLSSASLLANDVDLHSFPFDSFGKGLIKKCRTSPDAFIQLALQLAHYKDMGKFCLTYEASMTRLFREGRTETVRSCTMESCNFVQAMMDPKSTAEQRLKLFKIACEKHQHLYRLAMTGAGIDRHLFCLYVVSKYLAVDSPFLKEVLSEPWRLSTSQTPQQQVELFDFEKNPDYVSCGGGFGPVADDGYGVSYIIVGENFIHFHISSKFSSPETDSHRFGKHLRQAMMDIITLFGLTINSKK

[6] = target: T4, Carnitine O-palmitoyltransferase 1, liver isoform (Homo sapiens, UniProt P50416); experiment: as §2
T4 sequence (P50416 whole entry): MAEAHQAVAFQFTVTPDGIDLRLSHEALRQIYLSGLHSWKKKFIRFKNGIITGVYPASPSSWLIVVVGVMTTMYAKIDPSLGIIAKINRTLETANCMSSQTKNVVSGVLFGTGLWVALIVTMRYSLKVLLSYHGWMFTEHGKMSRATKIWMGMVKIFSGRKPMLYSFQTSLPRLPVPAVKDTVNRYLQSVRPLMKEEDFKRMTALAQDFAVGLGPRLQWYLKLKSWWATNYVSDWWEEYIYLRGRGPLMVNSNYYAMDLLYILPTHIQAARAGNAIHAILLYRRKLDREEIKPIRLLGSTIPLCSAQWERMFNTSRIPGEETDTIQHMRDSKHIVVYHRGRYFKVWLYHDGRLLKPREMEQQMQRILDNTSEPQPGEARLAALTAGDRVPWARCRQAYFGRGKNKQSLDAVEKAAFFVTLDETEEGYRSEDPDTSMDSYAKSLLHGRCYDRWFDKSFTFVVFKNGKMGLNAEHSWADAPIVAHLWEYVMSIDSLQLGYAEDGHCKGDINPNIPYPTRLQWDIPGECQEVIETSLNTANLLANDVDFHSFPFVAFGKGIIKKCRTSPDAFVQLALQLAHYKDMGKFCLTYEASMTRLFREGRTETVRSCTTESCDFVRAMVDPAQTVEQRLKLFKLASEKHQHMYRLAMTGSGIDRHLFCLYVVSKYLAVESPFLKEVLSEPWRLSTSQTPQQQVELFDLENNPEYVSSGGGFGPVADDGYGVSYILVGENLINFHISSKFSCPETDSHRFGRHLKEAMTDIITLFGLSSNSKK

[7] = target: T5, Carnitine O-palmitoyltransferase 1, muscle isoform (Homo sapiens, UniProt Q92523); experiment: SUPPLEMENTARY: Inhibition of Carnitine palmitoyltransferase 1, muscle isoform; set-up: species or system Muscle tissue
T5 sequence (Q92523 whole entry): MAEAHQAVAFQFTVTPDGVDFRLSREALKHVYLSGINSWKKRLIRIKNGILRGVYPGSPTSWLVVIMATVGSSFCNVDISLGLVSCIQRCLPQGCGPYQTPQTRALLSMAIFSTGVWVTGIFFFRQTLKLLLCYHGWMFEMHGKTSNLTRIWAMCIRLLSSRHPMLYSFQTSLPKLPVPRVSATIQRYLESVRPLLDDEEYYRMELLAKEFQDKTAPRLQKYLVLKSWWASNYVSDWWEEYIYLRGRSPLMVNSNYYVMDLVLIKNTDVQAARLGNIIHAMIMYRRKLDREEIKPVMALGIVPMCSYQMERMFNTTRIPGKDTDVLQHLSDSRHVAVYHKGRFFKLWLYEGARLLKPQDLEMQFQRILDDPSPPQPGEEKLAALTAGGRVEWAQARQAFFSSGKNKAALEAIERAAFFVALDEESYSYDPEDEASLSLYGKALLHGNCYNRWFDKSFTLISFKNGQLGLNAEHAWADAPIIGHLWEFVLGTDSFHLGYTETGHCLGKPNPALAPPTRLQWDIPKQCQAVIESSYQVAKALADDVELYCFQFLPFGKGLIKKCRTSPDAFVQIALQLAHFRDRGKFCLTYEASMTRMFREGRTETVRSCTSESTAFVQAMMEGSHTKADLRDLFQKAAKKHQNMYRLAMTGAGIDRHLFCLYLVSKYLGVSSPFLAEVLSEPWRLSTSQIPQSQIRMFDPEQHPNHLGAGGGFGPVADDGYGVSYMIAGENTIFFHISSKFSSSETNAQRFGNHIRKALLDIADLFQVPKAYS

Row | SMILES | IC50 [1] [nM] | IC50 [2] [nM] | Papp [3] [×10⁻⁶ cm/s] | solubility kinetic [4] [µg/mL] | IC50 [5] [nM] | IC50 [6] [nM] | IC50 [7] [nM]
1 | O=C(Nc1ccc(C(=O)O)c(F)c1)c1ccc2c(c1)N(S(=O)(=O)c1cccc(C(F)(F)F)c1)CCC2 | 6450 | 2230 | 2.13 | 10 (≈ 19.1 µM) | 74.8 | 126 | 9000
2 | CCn1cc(Sc2cc(Cl)ccc2OC)c2cc(C(=O)Nc3ccc(C(=O)O)cc3)ccc21 | > 100000 | > 100000 | 0.71 | 4 (≈ 8.32 µM) | 473 | 169 | > 100000
3 | Nc1cccc(-c2nc([C@H]3CCCCN3C(=O)COc3ccccc3)no2)n1 | > 100000 | 32000 | 5.45 | 25 (≈ 65.9 µM) | 254 | 111 | > 100000
4 | O=C(NC1CC1)c1cncc(-c2noc([C@H]3CCCCN3C(=O)COc3ccccc3)n2)c1 | > 100000 | > 100000 | 3.2 | 138 (≈ 308 µM) | 1000 | 111 | > 100000
5 | Cc1cc(C)cc(S(=O)(=O)n2ccc3ccc(C(=O)Nc4ccc(CC(=O)O)cc4)cc32)c1 | > 100000 | > 100000 | 1.89 | 6 (≈ 13 µM) | 151 | 152 | 950
6 | Nc1cc(-c2noc([C@H]3CCCCN3C(=O)COc3ccccc3)n2)ccn1 | 35200 | 19500 | 5.3 | 106 (≈ 279 µM) | 250 | 108 | > 100000
7 | O=C(Nc1ccc(C(=O)O)c(F)c1)c1ccc2c(c1)N(S(=O)(=O)c1cccc(Cl)c1)CCO2 | > 100000 | 18600 | 2.21 | 4 (≈ 8.15 µM) | 72.3 | 207 | 6920

Other lines, results leading:

Row | IC50 [1] [nM] | IC50 [2] [nM] | Papp [3] [×10⁻⁶ cm/s] | solubility kinetic [4] [µg/mL] | IC50 [5] [nM] | IC50 [6] [nM] | IC50 [7] [nM] | SMILES
8 | 36600 | 26700 | 2.7 | 8 (≈ 15.9 µM) | 35.4 | 40.1 | 14800 | COc1ccc(Cl)cc1S(=O)(=O)N1CCOc2ccc(C(=O)Nc3ccc(C(=O)O)cc3)cc21
9 | > 100000 | > 100000 | 0.81 | 1 (≈ 1.99 µM) | 189 | 71.3 | 11800 | COc1ccc(Cl)cc1S(=O)(=O)N1CCNc2ccc(C(=O)Nc3ccc(C(=O)O)cc3)cc21
10 | 1860 | 537 | 0.67 | 15 (≈ 29.2 µM) | 53.7 | 74.7 | 1960 | CCn1cc(S(=O)(=O)c2cc(Cl)ccc2OC)c2cc(C(=O)Nc3ccc(C(=O)O)cc3)ccc21
11 | > 100000 | > 100000 | 2.03 | 249 (≈ 477 µM) | 12 | 19.3 | > 100000 | COc1ccc(Cl)cc1S(=O)(=O)N1CCc2c(C)cc(C(=O)Nc3nc(CC(=O)O)cs3)cc21
12 | > 100000 | > 100000 | 2.84 | 38 (≈ 72.9 µM) | 132 | 155 | 614 | COc1ccc(Cl)cc1S(=O)(=O)N1COc2c(F)cc(C(=O)Nc3ccc(CC(=O)O)cc3)cc21
13 | > 100000 | > 100000 | 1.14 | 13 (≈ 28.5 µM) | 90.5 | 170 | 24200 | COc1ccc(Cl)cc1Cn1ccc2ccc(C(=O)Nc3nc(CC(=O)O)cs3)cc21
14 | 23900 | 4060 | 1.1 | 30 (≈ 56.7 µM) | 50.8 | 245 | 1220 | COc1ccc(Cl)cc1CN1C(=O)OC(C)(C)c2ccc(C(=O)Nc3ccc(C(=O)O)c(Cl)c3)cc21
15 | 1660 | 672 | 2.4 | 12 (≈ 24 µM) | 21 | 62.2 | 2240 | COc1ccc(Cl)cc1S(=O)(=O)N1CC(C)c2ccc(C(=O)Nc3ccc(C(=O)O)cc3)cc21 (configuration not stated)
16 | > 100000 | > 100000 | 2.24 | 309 (≈ 585 µM) | 52.3 | 31.2 | 553 | COc1ccc(Cl)cc1S(=O)(=O)N1COc2c(F)cc(C(=O)Nc3nc(CC(=O)O)cs3)cc21
